The test system of data set [1] is SH-SY5Y neuroblastoma cells. Put plainly: Neuroprotective activity in methylglyoxal-treated SH-SY5Y neuronal cells (MTT, morphology). Format: cell-based. The following applies: for cell viabilities of methylglyoxal-treated SH-SY5Y cells compared to the control: 24 h pre-treatment, then 500 µM methylglyoxal 24 h, MTT; for morphologies of methylglyoxal-treated SH-SY5Y cells: 10 µM, 500 µM methylglyoxal, photographs, 200-fold. As for the experimental part:
The SH-SY5Y cells (1 × 10^4 cells/well) were seeded onto a 96-well microplate and cultured in a DMEM/F-12 medium containing 10% FBS for 24 h at 37 °C under a humidified atmosphere and 5% CO2. The cultural medium was removed, and the different concentrations of hispolon (No.1), No.6, and No.7 or 0.1% DMSO (the control and the blank) were added and incubated at 37 °C in a humidified atmosphere with 5% CO2 for 24 h. The treated medium was removed, washed with PBS, and 500 µM MGO in PBS were added to the medium for another 24 h culture. The equal aliquot of PBS was added in the blank.

Data set [2] relates to RAW264.7 macrophages. Put plainly: Cell viability of RAW264.7 macrophages (MTT). As for the experimental part: (§1) The 5 × 10^4 macrophages/well were seeded in the 96-well plate and cultured for 24 h at 37 °C under the humidified atmosphere and 5% CO2. The cells were pre-treated with hispolon (No.1, 2.5, 5, 10, and 20 µM), No.2, No.3, No.4, and No.5 (5, 10, and 20 µM), and No.6 and No.7 (5, 10, 20, and 40 µM) for 24 h. The LPS (500 ng/ml) was then added to the pre-treated RAW264.7 macrophages for another 24 h for nitric oxide productions. For nitric oxide productions in LPS-treated RAW264.7 macrophages, the culture supernatant (100 µl) was mixed with 100 µl of Griess reagent at room temperature for 30 min. The absorbance at 550 nm was measured and expressed as relative nitric oxide productions (the control was recognized as 100%). […] The sample pretreated-RAW264.7 cells were stained with MTT solution (500 µg/mL), which the formazan was dissolved by 200 µL DMSO, and the absorbance at 570 nm was measured, and was expressed relative to the blank (%).

Data set [3] deals with T1, recombinant human AChE (Homo sapiens, UniProt P22303).
T1 construct: purchased R&D Systems Inc. (Minneapolis, MN)
T1 sequence (P22303 32-614): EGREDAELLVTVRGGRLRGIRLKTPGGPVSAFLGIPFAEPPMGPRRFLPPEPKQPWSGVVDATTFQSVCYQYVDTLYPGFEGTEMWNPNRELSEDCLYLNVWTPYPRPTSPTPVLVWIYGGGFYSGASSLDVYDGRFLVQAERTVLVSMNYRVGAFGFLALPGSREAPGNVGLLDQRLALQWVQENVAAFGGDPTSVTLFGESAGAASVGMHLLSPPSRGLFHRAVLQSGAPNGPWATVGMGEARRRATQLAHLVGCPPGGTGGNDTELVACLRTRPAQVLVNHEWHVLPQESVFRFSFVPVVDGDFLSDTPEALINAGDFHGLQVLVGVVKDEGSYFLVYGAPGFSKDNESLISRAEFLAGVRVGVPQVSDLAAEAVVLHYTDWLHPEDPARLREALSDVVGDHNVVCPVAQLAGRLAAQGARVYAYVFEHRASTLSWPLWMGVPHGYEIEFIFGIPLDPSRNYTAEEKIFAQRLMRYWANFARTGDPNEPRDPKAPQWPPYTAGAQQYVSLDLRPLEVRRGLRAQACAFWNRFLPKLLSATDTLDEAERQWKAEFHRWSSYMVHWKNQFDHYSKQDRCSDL
In words: biochemical. Particulars: pH 7.5, tested at 125 to 1000 µM, read-out: AChE inhibitory activity IC50. As to the method: The AChE substrates of acetylthiocholine iodide was added for another 15 min, and the DTNB coupling reagents was added and the mixture was recorded at 405 nm for 10 min. The DMSO instead of sample solution was used as the blank. AChE inhibition (%) was calculated by [(A405blank-A405sample)/(A405blank)] ×100%.

In data set [4] the test system is PC12 cells. In words: Neurite outgrowths in PC12 pheochromocytoma cells. Format: cell-based, rat. The following applies: 3-day treatment, blank 3.62 ± 1.62 μm. As to the method:
The PC12 cells (5 × 10^3/well) were seeded in poly-L-lysine coated 96-well plate and cultured in RPMI-640 medium supplemented with 10% horse serum, 5% FBS, 100 U/ml penicillin and 100 mg/l streptomycin for 24 h at 37 °C under the humidified atmosphere and 5% CO2. […] The DMSO was used instead of the sample solution as the blank. After an interval of 3 days, the cell morphologies were photographed using an inverted microscope (200-fold magnifications, ECLIPSE TS100, Nikon Instruments Inc., Tokyo, Japan).

The nature of data set [5]: DPPH radical scavenging activity. The class given is biochemical. Particulars: 100 µM DPPH in methanol, 20 min, A517nm; IC50 from linear equation of 20, 50 and 100 µM; read-out: IC50 of DPPH radical scavenging activities. As for the experimental part:
The 60 µL of different concentrations of samples (10, 20, 50, 100, 150, and 200 µM diluted with DMSO) were added into a 96-well plate, and then 140 µl of 100 µM DPPH in methanol was added under light protection for 20 min. The changes of absorbance at A517nm were measured, and DMSO was used instead of a sample solution in the control group. The scavenging activity of the DPPH radical (%) was calculated with the following equation: (Control-sample)/control ×100%.

The target in data set [6] is T2, Aβ1-42 peptide (Homo sapiens, UniProt P05067).
T2 construct: The preparation of Aβ1–42 peptide stock solution was following the previous report; purchased Sigma Chemical Co. (St. Louis, MO)
T2 sequence (P05067 672-713): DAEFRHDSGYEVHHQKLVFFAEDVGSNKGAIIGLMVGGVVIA
Put plainly: Anti-Aβ1-42 peptide aggregation, thioflavin T binding assay. Format: biochemical. Particulars: 10 µM Aβ1-42, 10 µM ThT, 37 °C, 24 h; read-out: IC50 of anti-Aβ1-42 peptide aggregations. As to the method:
The DMSO was used instead of the sample solution as the control. […] The inhibition against Aβ aggregation (%) was calculated as [(Econtrol,24−h-Econtrol,0−h)- (Esample,24−h-Esample,0−h)/(Econtrol,24 h-Econtrol,0−h)] ×100%.

Data set [7] relates to scopolamine-induced ICR mice. In words: Passive avoidance test in scopolamine-induced cognitive dysfunction ICR mice. Particulars: scopolamine 1 mg/kg i.p., P < 0.05. The class given is in vivo.
Excerpt: The 5-week-old (N = 30) male ICR mice were purchased from the Laboratory Animal Center in College of Medicine, National Taiwan University, and were housed in wire-bottomed stainless-steel cages and had free access to normal feeds (Prolab^Ⓡ RMH2500, MO) and water, which these cages were placed in an environmental controlled space under a 12-h light/dark cycle. After at least one-week acclimation, the mice were randomly divided into six groups, including the blank, the control, the positive control (donepezil-intervened), and the sample pre-treated groups (No.1, No.6, and No.7 groups). […] For mice in the blank, the control, and the positive control, mice were orally received the same volume of distilled water once daily for 10 days in the parallel experiments. In the second stage of animal experiments during day 11 to day 15, mice in the blank, the control, and the sample groups were treated as reported in the first stage, and mice in the positive control group were treated with donepezil (5 mg/kg) orally once a day by gavage feeding, and 30 min later, mice in the control, sample groups, and positive control were injected intraperitoneally with scopolamine (1 mg/kg, dissolved in PBS), and mice in the blank were injected with the same volume of PBS. At day 13 to day 15, after being injected with scopolamine or the same volume of PBS for 30 min, mice in each group were evaluated learning behaviours by the passive avoidance test. The passive avoidance apparatus, a computerized chamber (PACS-30, Columbus Instruments Inc., Columbus, OH) separated by a sliding guillotine door, is composed of a LED light box and a dark box. At the first day of the acquisition trial (day 13), the guillotine door was opened and each mouse was placed in the LED light box. In case the mouse entered the dark box, the automatic and computerized sliding guillotine door was closed, the entered mouse in the dark box received an electric foot shock (0.3 mA for 3 s) delivered via the wired metal floor and then sent back to the cage. The staying time in the light box (the step-through latency, sec) was recorded. The protocol in the second day (day 14) was the same as the first day. If the mouse stayed in the light box longer than 300 s, and the mouse was expelled into light box and received the same electric foot shocks. At the third day (day 15) of the retention trial, each mouse was placed again in the light box, and the staying time in the light box was recorded. The maximum time was 300 s.
Data set [8] concerns RAW264.7 macrophages. In words: Anti-nitric oxide productions in lipopolysaccharide-treated RAW264.7 macrophages (Griess). Format: cell-based. Particulars: 2.5 µM, 24 h pre-treatment, then LPS 500 ng/ml 24 h. As to the method: as §1
(In general: The Griess reaction detects nitrite, a stable product of nitric oxide.)

Data set [9] relates to soluble Aβ protofibrils. The following applies: intravenously every 2 weeks, 10 mg/kg of body weight, 18 months; ref van Dyck et al. [2023]; cited from earlier work.
The mark [10] stands for this setting: 40 mg/kg orally once daily, 10-day pre-treatment and days 11-15.

Values joined by “and” are separate entries in the source; they are usually repeats but may differ in a detail not shown here. Identical values can stand only once. Counter-ions that a name gives are not always drawn. Some results are limits rather than exact numbers.

The term IC50 denotes the point on the concentration scale where inhibition reaches its midpoint. Consider `CC(=O)CC(=O)/C=C/c1ccc(O)c(O)c1` [No.1, Hispolon], for which, in data set [1] (5 and 10 µM), the “cell viabilities of methylglyoxal-treated SH-SY5Y cells compared to the control” value (“cell viabilities … compared to the control” for short) is recorded as “no significant difference was found compared to those in the control”. Also, the “cytotoxicity toward RAW264.7 macrophages” value in data set [2] (2.5 µM) is reported as “no apparent toxicities”; in data set [2] (5, 10 and 20 µM), “showed cytotoxicities toward RAW264.7 macrophages”. In addition, the IC50 in data set [3] is 828 µM; in data set [5], 32.3 µM; in data set [6], 1.41 µM. In addition, the “average neurite lengths of PC12 cells” value in [4] (1 µM) came out at 8.02 ± 3.14 μm; in [4] (2 µM) it was 8.49 ± 3.61 μm. Moreover, the “step-through latency in the retention trial (day 15) compared to the control” value (“step-through latency … compared to the control” for short) in [7] (setting [10]) is on record as “prolong the staying time in the light box”. Also, the “relative nitric oxide productions (control = 100%)” value in data set [8] is recorded as 70%.

With `CC(=O)CC(=O)/C=C/c1cc(O)c(O)c(O)c1` [No.2, 5-hydroxy hispolon], the IC50 in [3] is above 1000 µM; in data set [5], 28.3 µM; in data set [6] it was 0.34 µM and 0.335 µM.

In the case of `COc1cc(/C=C/C(=O)CC(C)=O)cc(O)c1O` [No.3, 5-methoxyhispolon], the IC50 is above 1000 µM in data set [3]; 21 µM in data set [5]; 0.35 µM and 0.354 µM in data set [6].

Turning to `COc1cc(/C=C/C(=O)CC(C)=O)cc(OC)c1O` [No.4, 5-methoxyhispolon monomethyl ether], the 50% inhibitory concentration (IC50) in [3] is above 1000 µM; in [5] it was 79.4 µM; in data set [6], 12.4 µM.

In the case of `COc1cc(/C=C/C(=O)CC(C)=O)cc(OC)c1OC` [No.5, 5-methoxyhispolon dimethyl ether], the 50% inhibitory concentration (IC50) is above 1000 µM in [3], above 100 µM in [5] and above 20 µM in data set [6].

With `CC(=O)CC(=O)/C=C/c1ccc(O)c(O)c1O` [No.6, 2-hydroxy hispolon], in data set [1], the “morphologies of methylglyoxal-treated SH-SY5Y cells” value is “recover parts of methylglyoxal-damaged neuritic lengths and restore pyramidal shapes”. Also, in data set [1] (1, 2, 5 and 10 µM), the “cell viabilities … compared to the control” value is “had significant differences compared to those in the control”. In addition, the values for the IC50 in data set [3], in [5] and in data set [6] were 286 µM, 38.2 µM and 1.03 µM, respectively. The “average neurite lengths of PC12 cells” value in data set [4] (1 µM) was determined as 8.50 ± 3.48 μm; in data set [4] (2 µM), 7.01 ± 3.11 μm. In addition, in [7] (setting [10]), the “step-through latency … compared to the control” value is given as “prolong the staying time in the light box”.

For the molecule `COc1c(O)ccc(/C=C/C(=O)CC(C)=O)c1O` [No.7, 2-hydroxy hispolon monomethyl ether], in data set [1], the “morphologies of methylglyoxal-treated SH-SY5Y cells” value was “recover parts of methylglyoxal-damaged neuritic lengths and restore pyramidal shapes”. For the same molecule, the “cell viabilities … compared to the control” value in data set [1] (1, 2, 5 and 10 µM) is recorded as “had significant differences compared to those in the control”. For the same molecule, the 50% inhibitory concentration (IC50) in [3] is above 1000 µM; in [5], 37.3 µM; in [6], 0.95 µM and 0.953 µM. Besides, the “average neurite lengths of PC12 cells” value was 5.40 ± 1.96 μm in data set [4] (1 µM) and 8.05 ± 4.69 μm in [4] (2 µM). For the same molecule, the “step-through latency … compared to the control” value in data set [7] (setting [10]) is “prolong the staying time in the light box”.

Take `COc1cc2c(cc1OC)C(=O)C(CC1CCN(Cc3ccccc3)CC1)C2` (centres unmarked) [donepezil, donepezil hydrochloride, reference compound]: in data set [7] (5 mg/kg orally once a day, days 11-15, positive control), the “step-through latency … compared to the control” value is recorded as “prolong the staying time in the light box”.

As for NGF, in [4] (100 ng/ml, positive control), the “average neurite lengths of PC12 cells” value turned out to be 9.18 ± 4.87 μm.

B1: lecanemab (antibody, chains of the INN, looked up, V domains shown)
VH: EVQLVESGGGLVQPGGSLRLSCSASGFTFSSFGMHWVRQAPGKGLEWVAYISSGSSTIYYGDTVKGRFTISRDNAKNSLFLQMSSLRAEDTAVYYCAREGGYYYGRSYYTMDYWGQGTTVTVSS
VL: DVVMTQSPLSLPVTPGAPASISCRSSQSIVHSNGNTYLEWYLQKPGQSPKLLIYKVSNRFSGVPDRFSGSGSGTDFTLRISRVEAEDVGIYYCFQGSHVPPTFGPGTKLEIK
As for B1, in data set [9], the “less cognitive decline in CDR-SB change between baseline and last visit compared to placebo” value was 27%.

The record behind these values is article PMC11655744, “Antioxidant, anti-acetylcholinesterase, and anti-amyloid-β peptide aggregations of hispolon and its analogs in vitro and improved learning and memory functions in scopolamine-induced ICR mice” (Botanical Studies, 2024).
